Values of other authors, collected in paper PMC9103764, “Pilot Study on Acute Effects of Pharmacological Intraperitoneal L-Homoarginine on Homeostasis of Lysine and Other Amino Acids in a Rat Model of Isoprenaline-Induced Takotsubo Cardiomyopathy” (International Journal of Molecular Sciences, 2022).

Set-up: method as in PMID 9127274
Conditions: rat; cited from earlier work

Q: With `CC(C)NCC(O)c1ccc(O)c(O)c1` (stereo not shown) [isoprenaline] as the molecule, how does the elimination half-life read?
A: 10 min
